For one data set, the target named is T1, c-MET (Homo sapiens, UniProt P08581).
T1 construct: The recombinant DNA His-Tev-MET (956-1390) in pFastBac(Invitrogen); His (N, cleaved yes); Tev (TEV protease site) (N, cleaved yes); made in house; host or cells: SF21 insect cells (baculovirus, pFastBac)
Put plainly: Test A: HTRF Met test in 96-well format. Type of data set: biochemical. The essentials:
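The kinase was the Sf21-expressed MET cytoplasmic domain (956–1390), His tag removed, used at 5 nM with compound (0.17 nM–10 µM, 3% DMSO) in 10 mM MOPS pH 7.4. Poly-GAT 1 µg/ml, 10 µM ATP and 5 mM MgCl2 reacted 10 min at RT. After an EDTA stop, phosphotyrosine was detected by HTRF (665/620 ratio).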
(Time-resolved FRET reads energy transfer from a long-lived donor to a nearby acceptor.)

The results in this text go back to US8188078B2 (Sanofi-Aventis, priority 2007, dated 2012).

SMILES strings stand for the structures.

T1 sequence (P08581 956-1390): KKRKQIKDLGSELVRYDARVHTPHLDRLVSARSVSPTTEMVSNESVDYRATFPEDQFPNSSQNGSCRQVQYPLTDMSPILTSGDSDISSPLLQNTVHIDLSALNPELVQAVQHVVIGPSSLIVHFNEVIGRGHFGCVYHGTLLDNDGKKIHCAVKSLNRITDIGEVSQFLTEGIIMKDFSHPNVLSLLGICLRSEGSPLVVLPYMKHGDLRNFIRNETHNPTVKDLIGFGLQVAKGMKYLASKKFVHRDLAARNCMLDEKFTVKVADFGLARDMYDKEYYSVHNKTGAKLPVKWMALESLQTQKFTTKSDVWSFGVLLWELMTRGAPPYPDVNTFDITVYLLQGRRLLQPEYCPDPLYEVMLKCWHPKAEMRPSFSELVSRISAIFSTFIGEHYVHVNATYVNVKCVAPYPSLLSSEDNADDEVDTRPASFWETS

Broadly, the IC50 is the concentration at which inhibition is half-maximal. Higher therefore signals weaker potency in that assay. By melting point is commonly meant the temperature, or range, at which the solid turns liquid. In the case of `CC(Oc1cc2sc(NC(=O)CN3CCNCC3)nc2cc1F)c1c(Cl)ccc(F)c1Cl` (stereo not shown) [Example 69, N-{6-[1-(2,6-dichloro-3-fluorophenyl)ethoxy]-5-fluoro-1,3-benzothiazol-2-yl}-2-(piperazin-1-yl)acetamide], the melting point was 188 to 190 °C. Also, the IC50 on c-MET is less than 100 nM.

Compound `CCN1CCN(CCNC(=O)Nc2nc3cc(F)c(OC(C)c4c(Cl)ccc(F)c4Cl)cc3s2)CC1` (stereo not shown) [Example 100, 1-{6-[1-(2,6-dichloro-3-fluorophenyl)ethoxy]-5-fluoro-1,3-benzothiazol-2-yl}-3-[2-(4-ethylpiperazin-1-yl)ethyl]urea] displayed a melting point of 150 to 152 °C. For the same compound, the IC50 at c-MET was less than 100 nM.

With `CC(Oc1cc2sc(NC(=O)NCCOCC3CC3)nc2cc1F)c1c(Cl)ccc(F)c1Cl` (stereo not shown) [Example 103, 1-[2-(cyclopropylmethoxy)ethyl]-3-{6-[1-(2,6-dichloro-3-fluorophenyl)ethoxy]-5-fluoro-1,3-benzothiazol-2-yl}urea], the melting point was in the range of 178 to 184 °C. The compound also had an IC50 against c-MET of less than 100 nM.

The compound `COCCCNC(=O)Nc1nc2cc(F)c(OC(C)c3c(Cl)ccc(F)c3Cl)cc2s1` (stereo not shown) [Example 104, 1-{6-[1-(2,6-dichloro-3-fluorophenyl)ethoxy]-5-fluoro-1,3-benzothiazol-2-yl}-3-(3-methoxypropyl)urea] showed a melting point of 175 °C. Besides, on c-MET, the IC50 is less than 100 nM.

With `CC(Oc1cc2sc(NC(=O)NCCCO)nc2cc1F)c1c(Cl)ccc(F)c1Cl` (stereo not shown) [Example 105, 1-{6-[1-(2,6-dichloro-3-fluorophenyl)ethoxy]-5-fluoro-1,3-benzothiazol-2-yl}-3-(3-hydroxypropyl)urea], the melting point came to 158 °C. Also, at c-MET, the IC50 is less than 100 nM.

`CC(Oc1cc2sc(NC(=O)NCCN3CCOCC3)nc2cc1Cl)c1c(Cl)ccc(F)c1Cl` (stereo not shown) [Example 106, 1-{5-chloro-6-[1-(2,6-dichloro-3-fluorophenyl)ethoxy]-1,3-benzothiazol-2-yl}-3-[2-(morpholin-4-yl)ethyl]urea] had a melting point of 196 to 198 °C. Besides, the IC50 at c-MET was less than 100 nM.

For `CC(Oc1ccc2nc(NC(=O)NCCN3CCN(C)CC3)sc2c1)c1c(F)ccc(Cl)c1Cl` (stereo not shown) [Example 108, 1-{6-[1-(2,3-dichloro-6-fluorophenyl)ethoxy]-1,3-benzothiazol-2-yl}-3-[2-(4-methylpiperazin-1-yl)ethyl]urea], the melting point fell in the range of 105 to 110 °C. At c-MET, this compound came in with an IC50 of less than 100 nM.

For `CC(Oc1ccc2nc(NC(=O)NCCC3CCCN3C)sc2c1)c1c(F)ccc(Cl)c1Cl` (stereo not shown) [Example 110, 1-{6-[1-(2,3-dichloro-6-fluorophenyl)ethoxy]-1,3-benzothiazol-2-yl}-3-[2-(1-methylpyrrolidin-2-yl)ethyl]urea], the melting point is 102 to 105 °C. Moreover, the IC50 at c-MET was less than 100 nM.

Take `CC(Oc1cc2sc(NC(=O)NCCN3CCOCC3)nc2cc1F)c1c(F)ccc(Cl)c1Cl` (stereo not shown) [Example 111, 1-{6-[1-(2,3-dichloro-6-fluorophenyl)ethoxy]-5-fluoro-1,3-benzothiazol-2-yl}-3-[2-(morpholin-4-yl)ethyl]urea]: the melting point was 220 to 225 °C. Further, at c-MET, the IC50 was less than 100 nM.

With `CC(Oc1cc2sc(NC(=O)NCCCN3CCCC3=O)nc2cc1F)c1c(F)ccc(Cl)c1Cl` (stereo not shown) [Example 114, 1-{6-[1-(2,3-dichloro-6-fluorophenyl)ethoxy]-5-fluoro-1,3-benzothiazol-2-yl}-3-[3-(2-oxopyrrolidin-1-yl)propyl]urea], the melting point worked out at 195 °C. This compound also registered an IC50 against c-MET of less than 100 nM.

For the compound `CC(Oc1cc2sc(NC(=O)NCCN3CCN(C)CC3)nc2cc1F)c1c(F)ccc(Cl)c1Cl` (stereo not shown) [Example 115, 1-{6-[1-(2,3-dichloro-6-fluorophenyl)ethoxy]-5-fluoro-1,3-benzothiazol-2-yl}-3-[2-(4-methylpiperazin-1-yl)ethyl]urea], the melting point turned out to be 120 °C. This compound registered an IC50 against c-MET of less than 100 nM.

In the case of `CC(Oc1cc2sc(NC(=O)NCCN3CCCC3)nc2cc1F)c1c(F)ccc(Cl)c1Cl` (stereo not shown) [Example 118, 1-{6-[1-(2,3-dichloro-6-fluorophenyl)ethoxy]-5-fluoro-1,3-benzothiazol-2-yl}-3-[2-(pyrrolidin-1-yl)ethyl]urea], the melting point worked out at 191 °C. This compound also showed an IC50 at c-MET of less than 100 nM.

As to `CC(Oc1ccc2nc(NC(=O)NCCN3CCCC3)sc2c1)c1c(F)ccc(Cl)c1Cl` (stereo not shown) [Example 120, 1-{6-[1-(2,3-dichloro-6-fluorophenyl)ethoxy]-1,3-benzothiazol-2-yl}-3-[2-(pyrrolidin-1-yl)ethyl]urea], the melting point is 110 to 115 °C. Also, the IC50 at c-MET is less than 100 nM.

`Cc1ccc(F)c(C(C)Oc2ccc3nc(NC(=O)NCCN4CCOCC4)sc3c2)c1F` (stereo not shown) [Example 123, 1-{6-[1-(2,6-difluoro-3-methylphenyl)ethoxy]-1,3-benzothiazol-2-yl}-3-[2-(morpholin-4-yl)ethyl]urea] returned a melting point of 92 to 95 °C. Moreover, on c-MET, the IC50 was less than 100 nM.

For `CC(Oc1ccc2nc(NC(=O)NCCN3CCOCC3)sc2c1)c1c(Cl)ccc(Cl)c1Cl` (stereo not shown) [Example 124, 1-[2-(morpholin-4-yl)ethyl]-3-{6-[1-(2,3,6-trichlorophenyl)ethoxy]-1,3-benzothiazol-2-yl}urea], the melting point was 189 °C. This compound displayed an IC50 on c-MET of less than 100 nM.

In turn, `CC(Oc1ccc2nc(NC(=O)NCCN3CCCC3)sc2c1)c1c(Cl)ccc(Cl)c1Cl` (stereo not shown) [Example 125, 1-[2-(pyrrolidin-1-yl)ethyl]-3-{6-[1-(2,3,6-trichlorophenyl)ethoxy]-1,3-benzothiazol-2-yl}urea] yielded a melting point of 189 °C. At c-MET, the IC50 is less than 100 nM.

For `CC(Oc1cc2sc(NC(=O)NCCN3CCCC3)nc2cc1F)c1c(Cl)ccc(Cl)c1Cl` (stereo not shown) [Example 126, 1-{5-fluoro-6-[1-(2,3,6-trichlorophenyl)ethoxy]-1,3-benzothiazol-2-yl}-3-[2-(pyrrolidin-1-yl)ethyl]urea], the melting point fell in the range of 103 to 107 °C. Also, the IC50 against c-MET is less than 100 nM.

`CNCCCNC(=O)Nc1nc2cc(F)c(OC(C)c3c(Cl)ccc(F)c3Cl)cc2s1` (stereo not shown) [Example 127, 1-{6-[1-(2,6-dichloro-3-fluorophenyl)ethoxy]-5-fluoro-1,3-benzothiazol-2-yl}-3-[3-(methylamino)propyl]urea] came in with a melting point of 183 °C. The compound also yielded an IC50 at c-MET of less than 100 nM.

As for `CC(Oc1cc2sc(NC(=O)NCCCN)nc2cc1F)c1c(Cl)ccc(F)c1Cl` (stereo not shown) [Example 128, 1-(3-aminopropyl)-3-{6-[1-(2,6-dichloro-3-fluorophenyl)ethoxy]-5-fluoro-1,3-benzothiazol-2-yl}urea], the melting point stood at 163 °C. The compound also came in with an IC50 on c-MET of less than 100 nM.

As for `CC(Oc1cc2sc(NC(=O)NCC(=O)N3CCN(C)CC3)nc2cc1F)c1c(Cl)ccc(F)c1Cl` (stereo not shown) [Example 129, 1-{6-[1-(2,6-dichloro-3-fluorophenyl)ethoxy]-5-fluoro-1,3-benzothiazol-2-yl}-3-[2-(4-methylpiperazin-1-yl)-2-oxoethyl]urea], the melting point was in the range of 235 to 238 °C. Besides, the IC50 against c-MET is less than 100 nM.
